{"source": "patent US4822791A", "about": "“Pharmaceutical compositions of-2,2-1,1-[bis-2,2'-(3,1-benzoxazin-4-one)9 ethylenes” (priority 1984, dated 1989)", "key": {"hyaluronidase": {"molecular_target": "T1, hyaluronidase (Bos taurus, UniProt Q2YDK3)", "T1 sequence (Q2YDK3 36-553)": "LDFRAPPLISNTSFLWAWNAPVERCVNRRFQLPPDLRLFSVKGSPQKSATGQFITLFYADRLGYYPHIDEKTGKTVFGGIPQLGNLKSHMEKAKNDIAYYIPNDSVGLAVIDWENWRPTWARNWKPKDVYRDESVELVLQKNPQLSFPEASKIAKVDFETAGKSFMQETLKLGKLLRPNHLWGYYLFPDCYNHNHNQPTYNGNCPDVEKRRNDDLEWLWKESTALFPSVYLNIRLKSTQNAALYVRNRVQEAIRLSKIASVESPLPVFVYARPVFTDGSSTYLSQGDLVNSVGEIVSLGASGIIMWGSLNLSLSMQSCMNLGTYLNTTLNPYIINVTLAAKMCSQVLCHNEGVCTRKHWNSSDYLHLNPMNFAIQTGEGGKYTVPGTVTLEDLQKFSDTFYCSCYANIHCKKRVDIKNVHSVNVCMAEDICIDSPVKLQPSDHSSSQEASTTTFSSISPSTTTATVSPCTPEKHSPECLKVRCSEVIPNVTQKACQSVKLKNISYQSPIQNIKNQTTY", "test": "Anti-hyaluronidase activity (modified Morgan-Elson method)", "type": "biochemical", "details": "hyaluronidase 340NF unit/ml; activating agent Compound 48/80 or CaCl2; read-out: IC50", "protocol": "A buffer soluticn of hyaluronidase (0.1 ml) was taken in a test tube and 0.2 ml each of the buffer solution of various compounds in various concentrations was added, and the mixture was preincubated at 37° C. for 20 minutes. Then, an activating agent (Compound 48/80 or CaCl2) (0.2 ml) was added to make the total amount 0.5 ml, which was incubated at 37° C. for 20 minutes. Then, potassium hyaluronate buffer solution (0.5 ml) was added, and the mixture was incubated at 37° C. for 40 minutes. After cooling, the mixture was treated with aqueous solution of 0.4N NaOH (0.2 ml) and neutralized to stop the reaction. The resulting product was subjecred to measurement of OD585 by the modified Morgan-Elson Method. […] (The final ccncentration of hyaluronidase was 340NF unit/ml.) [formula]"}, "[1]": {"test_system": "passive cutaneous anaphylaxis (PCA)", "test": "Anti-passive cutaneous anaphylaxis (PCA) activity in rats (Test Example 2)", "type": "in vivo, Wistar strain rats", "details": "Rattus norvegicus, N 10; for inhibition in vivo at 10 mg/kg: 10 mg/kg PO; for inhibition in vivo at 50 mg/kg: 50 mg/kg PO; for inhibition in vivo at 100 mg/kg: 100 mg/kg PO", "in_short": "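Antiserum from Wistar rats sensitized with ovalbumin (alum plus B. pertussis adjuvant) was diluted 16- or 32-fold and injected into dorsal skin of naive rats, which were held 48 h. Compound was given orally 1 h before i.v. ovalbumin plus Evans blue.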"}, "[2]": {"test_system": "anaphylaxis reaction to inhalated antigen", "test": "Antigen inhalation test on passive sensitized guinea pig (experimental asthma model)", "type": "in vivo", "details": "200 mg/kg po", "protocol": "The test compound and Tranilast were respectively suspended at the time of use in 5% gum arabic solution containing 0.1% Tween 80 at the rate of 40 mg/ml, and were perorally administered at the rate of 0.5 ml per 100 g body weight of the animal.\nDSCG was dissolved at the time of use in physiological saline solultion for injection at the rate of 5.0 mg/ml, and was intravenously injected at the rate of 0.1 ml per 100 g body weight of the animal.\nAnti-ovalbumin rabbit serum diluted with physiological saline solution for injection so as tc contain anti-ovalbumin rabbit antibody at the rate of 0.187 mg N/ml was intravenously administered to guinea pig at the rate of 0.1 ml per 100 g of body weight and it was passively sensitized.\nTwenty-four hours later, the suspension of the compound prepared in (1) above was perorally or intravenously administered to the animal. The animal was put in the inhalation chamber one hour after the administration in case of the peroral administration and five minutes after the administration in case of the intravenous administration, and 2% physiological saline solution of antigen ovalbumin was inhaled by spraying. Over 10 minutes' period from the time immediately after the forced inhalation, the time until its fall attributed to anaphylaxis reaction was recorded, and the numbers of alive and dead animals after lapse of 10 minutes were also counted."}, "SRS-A": {"test_system": "SRS-A", "test": "Anti-SRS-A activity, contraction of guinea pig ileum by crude SRS-A solution", "set-up": "key to Anti-SRS-A activity (rate of inhibition against the contraction amount): % inhibition of SRS-A-induced ileum contraction", "description": "A piece of lungs of guinea pig sensitized with ovalbumin was incubated with antigen ovalbumin at 37° C. for 20 minutes to obtain a supernatant solution, which was used as a crude SRS-A solution.\nA piece of ileum of normal guinea pig was suspended in Magnus tube filled with Tyrode's solution and incubated with the solution of drug to be examined for a certain duration, and the contraction of the piece of ileum induced by adding the above crude SRS-A solution was determined on the basis of the contraction rate attributed to hystamine dihydrochloride 10^-6 M. The rate of inhibition against the contraction amount was taken as anti-SRS-A activity."}, "[3]": {"test_system": "mast cell in abdominal cavity", "test": "Inhibition of histamine release from mast cell in abdominal cavity in rat (Test Example 6)", "type": "cell-based", "description": "Examination was made on the activity of inhibition of histamine release from mast cell by antigen-antibody reaction.\nSwine ascaris extract solution was dinitrophenylated according to Aisen's method, dialysed, and lyophilized. The product was administered as antigen together with Bordetella Pertussis vaccine subcutaneously into the foot pad of rat. Eight days later, blood was taken to obtain antiserum. The PCA titer for this antiserum in rat was 32 to 64.\nHeparin-containing PBS was injected intraperitoneally to rat which was sacrificed by exsanguination, after which the abdomen was well massaged to collect the injected PBS, which was purified by washing several times by centrifugation. The number of the mast cells contained in the solution was determined and adjusted to the designed concentration. As to method of sensitizing the cell, the above cell suspension (6 ml, 2×10^6 cells/ml) was treated with anti-DNP-Ascaris rat serum (PCA titer 32) (6 ml) and the mixture was incubated in the presence of hepain at 37° C. for 2 hours.\nTo the sensitized mast cell suspension the solution of the drug to be tested was added, and the mixture was preliminarily incubated at 37° C. for 12 minutes. After addition of the solution of antigen DNP-Ascaris (final concentration, 20 microgramms/ml), the mixture was further incubated for 20 minutes. After completion of the reaction, the solution was centrifuged (500 G, 10 min.) under a low temperature to obtain a supernatant solution. Histamine contained in the supernatant solution was subjected to fluorometry by crthophthalaldehyde method."}, "[4]": {"test_system": "passive systemic anaphylaxis (PSA)", "test": "Preventive activity against passive systemic anaphylaxis (PSA) in guinea pig", "type": "in vivo, Hartley strain female guinea pig", "protocol": "Effect of the compound on prevention of death by passive systemic anaphylaxis was examined in guinea pig.\nNormal Hartley strain female guinea pig (body weight, 240-260 g) was sensitized by intravenous administraticn of anti-ovalbumin rabbit serum. It was perorally administered with the compound 11 in the amount of 200 mg/kg. One hour later, it was intravenously administered with 2% physiological saline solution of antigen ovalbumin at the rate of 0.05 ml. Thereafter, the state was observed, and the time (seconds) until death was measured."}, "[5]": {"test": "Acute toxicity LD50 in mice (Test Example 8)", "details": "mouse, in vivo, one week, Probit method", "description": "ddy-Strain mice (male) and Wistar strain rats were used to obtain LD50 values.\nAccording to the ordinary procedure, suspension or solution of test sample was administered to the animals. From the number of the died animals until one week after the administration, LD50 values were obtained by Probit method."}, "[6]": {"details": "read-out: Average Inhibition Rate (%) Antiserum Dilution: × 16"}, "[7]": {"details": "read-out: Average Inhibition Rate (%) Antiserum Dilution: × 32"}}, "note": "Several values for one entry are separate records, joined by “and”; a condition that tells them apart may be missing. Equal entries are not always repeated. Where two headings read alike, the source gives them in different places.", "data": [{"smiles": "O=C(Nc1ccccc1C(=O)O)C(=Cc1ccccc1)C(=O)Nc1ccccc1C(=O)O", "note": "[Compound 11, 2,2'-[(1,3-dioxo-2-phenylmethylene-1,3-propanediyl)diimino]bisbenzoic acid]", "values": [{"measurement": "IC50", "setting": "hyaluronidase", "result": 22, "unit": "µM"}, {"measurement": "inhibition in vivo at 10 mg/kg", "setting": "[1]; [6]", "result": 23.2, "unit": "%"}, {"measurement": "inhibition in vivo at 10 mg/kg", "setting": "[1]; [7]", "result": 33.1, "unit": "%"}, {"measurement": "inhibition in vivo at 50 mg/kg", "setting": "[1]; [6]", "result": 41.4, "unit": "%"}, {"measurement": "inhibition in vivo at 50 mg/kg", "setting": "[1]; [7]", "result": 39.1, "unit": "%"}, {"measurement": "inhibition in vivo at 100 mg/kg", "setting": "[1]; [6]", "result": 52.9, "unit": "%"}, {"measurement": "inhibition in vivo at 100 mg/kg", "setting": "[1]; [7]", "result": 53.5, "unit": "%"}, {"measurement": "Extended rate (%)", "setting": "[2]", "result": 43.5, "unit": "%"}, {"measurement": "preventive effect on anaphylaxis reaction (in words)", "setting": "[2]", "result": "strong preventive effect"}, {"measurement": "Average time for falling Mean ± S.E.", "setting": "[2]; N 5", "result": "223.0 ± 15.7", "unit": "s"}, {"measurement": "Required time (sec.) for falling and Number of death (#), single animals", "setting": "[2]; N 5, observed 10 minutes, # shows death", "result": "194 s and 227 s and 248 s and > 600 s"}, {"measurement": "Anti-SRS-A activity (rate of inhibition against the contraction amount)", "setting": "SRS-A; 10^-3 M", "result": 31.8}, {"measurement": "Anti-SRS-A activity (rate of inhibition against the contraction amount)", "setting": "SRS-A; 10^-4 M", "result": 0}, {"measurement": "Anti-SRS-A activity (rate of inhibition against the contraction amount)", "setting": "SRS-A; 10^-5 M", "result": 0}, {"measurement": "Anti-SRS-A activity (rate of inhibition against the contraction amount)", "setting": "SRS-A; 10^-6 M", "result": 0}, {"measurement": "anti-SRS-A activity (in words)", "setting": "SRS-A; compound 11 at a concentration of 10^-3 M", "result": "moderate anti-SRS-A activity"}, {"measurement": "activity at 1000 µM", "setting": "[3]; Rattus norvegicus, Mast cell, 20 min, 10^-3 M, DNP-Ascaris 20 microgramms/ml, read-out: Amount of histamine released from peritoneal mast cell (Control = 100)", "result": 13, "unit": "%"}, {"measurement": "activity at 100 µM", "setting": "[3]; Rattus norvegicus, Mast cell, 20 min, 10^-4 M, DNP-Ascaris 20 microgramms/ml, read-out: Amount of histamine released from peritoneal mast cell (Control = 100)", "result": 59, "unit": "%"}, {"measurement": "activity at 10 µM", "setting": "[3]; Rattus norvegicus, Mast cell, 20 min, 10^-5 M, DNP-Ascaris 20 microgramms/ml, read-out: Amount of histamine released from peritoneal mast cell (Control = 100)", "result": 51, "unit": "%"}, {"measurement": "activity at 1 µM", "setting": "[3]; Rattus norvegicus, Mast cell, 20 min, 10^-6 M, DNP-Ascaris 20 microgramms/ml, read-out: Amount of histamine released from peritoneal mast cell (Control = 100)", "result": 55, "unit": "%"}, {"measurement": "inhibition of release of histamine from the mast cell (in words)", "setting": "[3]; even at the low concentration of 10^-6 M", "result": "inhibiting release of histamine"}, {"measurement": "average living time", "setting": "[4]; 200 mg/kg perorally, control group 294.9 seconds", "result": 441.7, "unit": "s"}, {"measurement": "Extended rate (%)", "setting": "[4]; 200 mg/kg po", "result": 49.8, "unit": "%"}, {"measurement": "anti-PSA activity (in words)", "setting": "[4]; 200 mg/kg po", "result": "statistically significant anti-PSA activity"}, {"measurement": "Ave. time to death Mean ± S.E.", "setting": "[4]; 200 mg/kg po, N 10", "result": "441.70 ± 21.5", "unit": "s"}, {"measurement": "Required time (sec.) to death, single animals", "setting": "[4]; 200 mg/kg po, N 10", "result": "431 s and 548 s and 488 s and 475 s and 367 s and 492 s and 485 s and 352 s and 348 s"}, {"measurement": "LD50 at 168 h", "setting": "[5]; iv, read-out: LD50 value (mg/kg body weight) Mouse i.v.", "result": 344, "unit": "mg/kg"}, {"measurement": "LD50 at 168 h", "setting": "[5]; po, read-out: LD50 value (mg/kg body weight) Mouse p.o.", "result": "> 10000", "unit": "mg/kg"}]}]}
